Experiments:
[1] = target: T1, MLKL (Homo sapiens, UniProt Q8NB16); experiment: Measurement of binding affinity with MLKL receptor (competitive binding assay, Kd); parameters: made in house; host or cells: HEK 293 cell line (T7 phage in E. coli BL21-derived host is also described)
T1 sequence (Q8NB16 1-471): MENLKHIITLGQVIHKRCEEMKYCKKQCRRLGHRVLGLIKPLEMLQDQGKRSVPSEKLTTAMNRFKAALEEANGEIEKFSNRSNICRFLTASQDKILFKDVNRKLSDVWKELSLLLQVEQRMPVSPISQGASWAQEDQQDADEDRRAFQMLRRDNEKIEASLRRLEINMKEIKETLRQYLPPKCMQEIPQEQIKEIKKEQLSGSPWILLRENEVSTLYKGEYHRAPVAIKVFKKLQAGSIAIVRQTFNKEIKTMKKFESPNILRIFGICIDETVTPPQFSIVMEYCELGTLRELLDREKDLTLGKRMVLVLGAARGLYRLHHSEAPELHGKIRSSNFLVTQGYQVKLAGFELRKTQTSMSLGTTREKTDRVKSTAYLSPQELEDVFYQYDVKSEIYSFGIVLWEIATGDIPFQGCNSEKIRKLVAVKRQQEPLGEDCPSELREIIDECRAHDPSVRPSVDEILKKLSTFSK
Outline: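 Competitive displacement of MLKL, expressed in HEK 293 cells and DNA-tagged for qPCR, from immobilized ligand on biotin-blocked beads. Compounds were added from 111× DMSO stocks (final DMSO 0.9%). Kinase left in the eluates was quantified by qPCR to give Kd.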

[2] = tested on: FADD−/− Jurkat cells; experiment: Necroptosis inhibition assay, TNF-α-induced necroptosis (CellTiter-Glo 2.0); assay type: cell-based, human; conditions: TNF-α 15 ng/mL; for Necroptosis inhibition assay (Rescue %) 1 μM: compound 1 μM; for Necroptosis inhibition assay (Rescue %) 10 μM: compound 10 μM
Outline: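 Tested at three fixed concentrations (0.1, 1, 10 μM final) with a 30-minute room-temperature preincubation ahead of 15 ng/mL TNF-α challenge lasting 20 to 24 hours. Inhibition rate and cytotoxicity derive from ATP luminescence.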

[3] = target: T1, MLKL; experiment: MLKL degradation assay in HepG2 cell line (western blot); assay type: cell-based; parameters: endogenous in cells; host or cells: HepG2 or HaCaT; conditions: cell line not given; for Degradation assay (Degradation %) 1 μM: compound 1 μM; for Degradation assay (Degradation %) 10 μM: compound 10 μM
Outline: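 Degradation is judged from MLKL band intensity on immunoblots of HepG2 lysates taken after 20-24 hours of compound at final 1 or 10 μM.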

Compound | Kd [1] | Necroptosis inhibition assay (Rescue %) 1 μM [2] | Necroptosis inhibition assay (Rescue %) 10 μM [2] | Degradation assay (Degradation %) 1 μM [3] | Degradation assay (Degradation %) 10 μM [3] | Necroptosis inhibition assay (Rescue %) 1 μM ([2]; FADD−/− Jurkat cells) | Necroptosis inhibition assay (Rescue %) 10 μM ([2]; FADD−/− Jurkat cells)
Nc1ncc(-c2cnn(C3CCN(CCCCCCNC(=O)COc4ccc5c(c4)C(=O)N(C4CCC(=O)NC4=O)C5=O)CC3)c2)nc1C(=O)O[C@@H](C(=O)Nc1ccc(F)cc1)c1ccccc1 (stereo partly drawn) [TDH-165, (R)-2-((4-fluorophenyl)amino)-2-oxo-1-phenylethyl 3-amino-6-(1-(1-(6-(2-((2-(2,6-dioxopiperidin-3-yl)-1,3-dioxoisoindolin-5-yl)oxy)acetamido)hexyl)piperidin-4-yl)-1H-pyrazol-4-yl)pyrazine-2-carboxylate] | 0.9 nM | 52.37% | 4.66% | 62.49% | 61.44% |  | 
Nc1ncc(-c2cnn(C3CCN(CC4CN(C(=O)COc5ccc6c(c5)C(=O)N(C5CCC(=O)NC5=O)C6=O)CCO4)CC3)c2)nc1C(=O)OC(C(=O)Nc1ccc(F)cc1)c1ccccc1 (stereo not shown) [TDH-309, 2-((4-fluorophenyl)amino)-2-oxo-1-phenylethyl 3-amino-6-(1-(1-((4-(2-((2-(2,6-dioxopiperidin-3-yl)-1,3-dioxoisoindolin-5-yl)oxy)acetyl)morpholin-2-yl)methyl)piperidin-4-yl)-1H-pyrazol-4-yl)pyrazine-2-carboxylate] | 2.2 nM | 75.1% | 78.37% | 76.12% | 77.55% |  | 
Nc1ncc(-c2ccc(N3CCN(CCOCCOCCNC(=O)C4CCN(c5ccc6c(c5)C(=O)N(C5CCC(=O)NC5=O)C6=O)CC4)CC3)nc2)nc1C(=O)OC(C(=O)Nc1ccc(F)cc1)c1ccccc1 (stereo not shown) [TDH-258, 2-((4-fluorophenyl)amino)-2-oxo-1-phenylethyl 3-amino-6-(6-(4-(2-(2-(2-(1-(2-(2,6-dioxopiperidin-3-yl)-1,3-dioxoisoindolin-5-yl)piperidine-4-carboxamido)ethoxy)ethoxy)ethyl)piperazin-1-yl)pyridin-3-yl)pyrazine-2-carboxylate] | 78 nM | 33.73% | 24.69% | 13.9% | 10.67% |  | 
Nc1ncc(-c2cnn(C3CCN(CC4CCN(C(=O)C5CN(c6ccc7c(c6)C(=O)N(C6CCC(=O)NC6=O)C7=O)C5)CC4)CC3)c2)nc1C(=O)O[C@@H](C(=O)Nc1ccc(F)cc1)c1ccccc1 (stereo partly drawn) [TDH-145, (R)-2-((4-fluorophenyl)amino)-2-oxo-1-phenylethyl 3-amino-6-(1-(1-((1-(1-(2-(2,6-dioxopiperidin-3-yl)-1,3-dioxoisoindolin-5-yl)azetidine-3-carbonyl)piperidin-4-yl)methyl)piperidin-4-yl)-1H-pyrazol-4-yl)pyrazine-2-carboxylate] | 2.5 nM | 51.47% | 40.41% | 36.97% | 55.66% |  | 
Nc1ncc(-c2cnn(C3CCN(CCCCCCNC(=O)C4CCN(c5cccc6c5C(=O)N(C5CCC(=O)NC5=O)C6=O)CC4)CC3)c2)nc1C(=O)O[C@@H](C(=O)Nc1ccc(F)cc1)c1ccccc1 (stereo partly drawn) [TDH-108, (R)-2-((4-fluorophenyl)amino)-2-oxo-1-phenylethyl 3-amino-6-(1-(1-(6-(1-(2-(2,6-dioxopiperidin-3-yl)-1,3-dioxoisoindolin-4-yl)piperidine-4-carboxamido)hexyl)piperidin-4-yl)-1H-pyrazol-4-yl)pyrazine-2-carboxylate] | 4.4 nM | 75.49% | 43.94% | 48.06% | 43.66% |  | 
Nc1ncc(-c2cnn(C3CCN(C(=O)CC4CCN(c5cccc6c5C(=O)N(C5CCC(=O)NC5=O)C6=O)CC4)CC3)c2)nc1C(=O)O[C@@H](C(=O)Nc1ccc(F)cc1)c1ccccc1 (stereo partly drawn) [TDH-343, (R)-2-((4-fluorophenyl)amino)-2-oxo-1-phenylethyl 3-amino-6-(1-(1-(2-(1-(2-(2,6-dioxopiperidin-3-yl)-1,3-dioxoisoindolin-4-yl)piperidin-4-yl)acetyl)piperidin-4-yl)-1H-pyrazol-4-yl)pyrazine-2-carboxylate] | 11 nM | 12.75% | 14.42% | 31.43% | 43.78% |  | 
Nc1ncc(-c2cnn(C3CCN(CC4CCN(C(=O)CNc5ccc6nnn(C7CCC(=O)NC7=O)c(=O)c6c5)CC4)CC3)c2)nc1C(=O)O[C@@H](C(=O)Nc1ccc(F)cc1)c1ccccc1 (stereo partly drawn) [TDH-152, (R)-2-((4-fluorophenyl)amino)-2-oxo-1-phenylethyl 3-amino-6-(1-(1-((1-((3-(2,6-dioxopiperidin-3-yl)-4-oxo-3,4-dihydrobenzo[d][1,2,3]triazin-6-yl)glycyl)piperidin-4-yl)methyl)piperidin-4-yl)-1H-pyrazol-4-yl)pyrazine-2-carboxylate] | 2.7 nM | 63.2% | 41.21% | 51.96% | 35.05% |  | 
Nc1ncc(-c2cnn(C3CCN(CC4CCN(C(=O)C5CCN(C6=CC(=O)N(C7CCC(=O)NC7=O)C6=O)CC5)CC4)CC3)c2)nc1C(=O)O[C@@H](C(=O)Nc1ccc(F)cc1)c1ccccc1 (stereo partly drawn) [TDH-523, (R)-2-((4-fluorophenyl)amino)-2-oxo-1-phenylethyl 3-amino-6-(1-(1-((1-(1-(1-(2,6-dioxopiperidin-3-yl)-2,5-dioxo-2,5-dihydro-1H-pyrrol-3-yl)piperidine-4-carbonyl)piperidin-4-yl)methyl)piperidin-4-yl)-1H-pyrazol-4-yl)pyrazine-2-carboxylate] | 1 nM |  |  | 89.24% | 77.14% | 35.34% | 16.27%
COc1ccc(C(=O)N2CCN(CCCN3CCC(n4cc(-c5cnc(N)c(C(=O)O[C@@H](C(=O)Nc6ccc(F)cc6)c6ccccc6)n5)cn4)CC3)CC2)cc1N1CCC(=O)NC1=O [TDH-447, (R)-2-((4-fluorophenyl)amino)-2-oxo-1-phenylethyl 3-amino-6-(1-(1-(3-(4-(3-(2,4-dioxotetrahydropyrimidin-1(2H)-yl)-4-methoxybenzoyl)piperazin-1-yl)propyl)piperidin-4-yl)-1H-pyrazol-4-yl)pyrazine-2-carboxylate] | 0.17 nM |  |  | 60.39% | 14.41% | 33.69% | 14.38%
Nc1ncc(-c2cnn(C3CCN(C(=O)CC4CCN(C(=O)CC5CCN(c6ccc7c(c6)C(=O)N(C6CCC(=O)NC6=O)C7=O)CC5)CC4)CC3)c2)nc1C(=O)O[C@@H](C(=O)Nc1ccc(F)cc1)c1ccccc1 (stereo partly drawn) [TDH-402, (R)-2-((4-fluorophenyl)amino)-2-oxo-1-phenylethyl 3-amino-6-(1-(1-(2-(1-(2-(1-(2-(2,6-dioxopiperidin-3-yl)-1,3-dioxoisoindolin-5-yl)piperidin-4-yl)acetyl)piperidin-4-yl)acetyl)piperidin-4-yl)-1H-pyrazol-4-yl)pyrazine-2-carboxylate] | 7.7 nM |  |  | 65.36% | 48.34% | 23.40% | 19.16%
Nc1ncc(-c2cnn(C3CCN(C(=O)COCCOCCNC(=O)C4CCN(c5ccc6c(c5)C(=O)N(C5CCC(=O)NC5=O)C6=O)CC4)CC3)c2)nc1C(=O)O[C@@H](C(=O)Nc1ccc(F)cc1)c1ccccc1 (stereo partly drawn) [TDH-195, (R)-2-((4-fluorophenyl)amino)-2-oxo-1-phenylethyl 3-amino-6-(1-(1-(2-(2-(2-(1-(2-(2,6-dioxopiperidin-3-yl)-1,3-dioxoisoindolin-5-yl)piperidine-4-carboxamido)ethoxy)ethoxy)acetyl)piperidin-4-yl)-1H-pyrazol-4-yl)pyrazine-2-carboxylate] | 6.9 nM | 80.66% | 39.24% | 63.85% | 29.78% |  | 

From patent US20240252488A1 (KOREA RESEARCH INSTITUTE OF CHEMICAL TECHNOLOGY, priority 2020, published 2024)
